Assay results reported in ChEMBL document CHEMBL1811761, “Recent advances in drug discovery of benzothiadiazine and related analogs as HCV NS5B polymerase inhibitors” (Bioorg Med Chem, 2011).

Key:
Hepatitis C virus = experiment: Antiviral activity against HCV 1b N infected in human HuH7 cells assessed as inhibition of viral RNA replication after 3 days by RT-PCR analysis; type: functional, organism-based, Hepacivirus hominis; settings: genotype 1b strain N, Huh-7, 72 h
Huh-7 = experiment: Cytotoxicity against human HuH7 cells up to […]; type: cell-based

| SMILES | EC50 (Hepatitis C virus) | Activity (Huh-7) |
| --- | --- | --- |
| O=c1c(C2=NS(=O)(=O)c3ccccc3N2)c(O)c2ccccc2n1NC1CCC1 | 100 nM |  |
| O=c1c(C2=NS(=O)(=O)c3ccccc3N2)c(O)c2ccccc2n1NC1CC1 | 100 nM |  |
| NC(=O)COc1ccc2c(c1)S(=O)(=O)N=C(c1c(O)c3ccccc3n(NC3CCC3)c1=O)N2 | 70 nM | Non-toxic |
